pIC50: −log10 of the molar value. Like-named read-outs stand apart in the source and are kept apart here.
What was measured:
[1] = tested on: PKMYT1 (CDK1 pThr14) in FUOV1 cells; test: PKMYT1 cell-based activity assay, CDK1 pThr14 AlphaLISA in FUOV1 cells; conditions: read-out: FUOV-1 CDK1 pThr14 IC50
In short: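 IC50 was derived from AlphaLISA signal (excitation 680 nm, emission 615 nm) for phospho-Thr14 CDK1 in lysates. The detection antibodies were rabbit anti-pThr14 and mouse anti-total CDK1, each at 5 nM. FUOV1 ovarian cells were exposed to compound for 2 hours before lysis.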

[2] = target: recombinant human Myt1 (full length PKMYT1) (Homo sapiens (Human), UniProt Q99640); test: Recombinant human Myt1 kinase assay (ADP-Glo); assay type: biochemical; conditions: 10 μM ATP
In short: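 ADP-Glo luminescence measured ATP hydrolysis by recombinant full-length PKMYT1 (18 nM) after 60 min at 30 °C with 10 μM ATP. Compounds in 0.5% DMSO were added to the enzyme 15 min before ATP, at 22 °C, in HEPES/MgCl2/MnCl2 buffer. IC50 and percent maximal inhibition were derived.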

Chain of recombinant human Myt1 (full length PKMYT1) (Q99640 whole entry): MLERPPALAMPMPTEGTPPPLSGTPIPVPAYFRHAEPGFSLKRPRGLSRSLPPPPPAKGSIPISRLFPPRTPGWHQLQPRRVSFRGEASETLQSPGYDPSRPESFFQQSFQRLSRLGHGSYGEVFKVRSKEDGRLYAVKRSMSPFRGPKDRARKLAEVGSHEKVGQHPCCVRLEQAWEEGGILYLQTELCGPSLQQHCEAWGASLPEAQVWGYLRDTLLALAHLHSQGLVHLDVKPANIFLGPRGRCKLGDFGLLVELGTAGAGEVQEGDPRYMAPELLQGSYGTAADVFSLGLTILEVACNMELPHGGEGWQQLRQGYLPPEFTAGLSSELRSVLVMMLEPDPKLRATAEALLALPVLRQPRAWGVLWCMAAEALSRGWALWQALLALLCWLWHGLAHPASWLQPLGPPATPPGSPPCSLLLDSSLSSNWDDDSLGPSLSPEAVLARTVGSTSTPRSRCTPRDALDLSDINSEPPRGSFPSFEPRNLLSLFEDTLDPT

Row | Structure (SMILES) | pIC50 ([1]; 2 h, 2 h compound incubation) | pIC50 [2] | pIC50 ([1]; 2 h, 2 hours with compound) | pIC50 ([1]; 2 h, 2 h incubation) | pIC50 ([1]; 2 h incubation)
1 | Cc1ccc2[nH]ncc2c1-c1nc(-c2cc(F)c(F)cc2NC2CC(F)(F)C2)nc(C(N)=O)c1N [Compound 475] | 6.86 | 7.85 |  |  | 
2 | Cc1ccc(O)cc1-c1nc(-c2ccc(C(F)(F)F)cc2)nc(C(N)=O)c1N [Compound 7] |  | 7.51 |  | 6.13 | 
3 | Cc1ccc2[nH]ncc2c1-c1nc(-c2nccs2)nc(C(N)=O)c1N [Compound 108] |  | 7.10 |  | 5.13 | 
4 | Cc1ccc(O)c(C)c1-c1cc(Cl)nc(C(N)=O)c1N [Compound 17] |  | 7.44 |  | 5.06 | 
5 | Cc1ccc2[nH]ncc2c1-c1cc(-c2ccnc(N[C@H](CO)c3ccccc3)n2)nc(C(N)=O)c1N (atropisomer, axis not shown) [Compound 371] |  | 6.33 |  | 5.62 | 
6 | Cc1ccc2[nH]ncc2c1-c1cc(-c2cc(Cl)ccn2)nc(C(N)=O)c1N [Compound 257] |  | 7.92 |  | 5.93 | 
7 | Cc1ccc(O)c(C)c1-c1cc(-c2ccc(C(F)(F)F)cc2)nc(C(N)=O)c1N [Compound 15] |  | 7.70 |  | 5.60 | 
8 | Cc1ccc2[nH]ncc2c1-c1nc(-c2ccc(C(=O)O)cc2)nc(C(N)=O)c1N [Compound 146] |  | 7.64 |  | < 5.00 | 
9 | Cc1ccc2[nH]ncc2c1-c1c(N)c(C(N)=O)cc2c1oc1ccccc12 [Compound 418, 3-amino-4-(5-methyl-1H-indazol-4-yl)dibenzo[b,d]furan-2-carboxamide] | 5.88 | 7.57 |  |  | 
10 | CCOc1ccccc1-c1nc(C(N)=O)c(N)c(-c2c(C)ccc3[nH]ncc23)n1 [Compound 794] | 6.19 | 7.28 |  |  | 
11 | NC(=O)c1nc(-c2ccccc2)nc(-c2cccc3[nH]nc(F)c23)c1N [Compound 123] |  | 7.00 |  | < 5.00 | 
12 | Cc1ccc2[nH]ncc2c1-c1cc(-c2cccc(OCc3ccncn3)n2)nc(C(N)=O)c1N [Compound 244] |  | 7.96 |  | 6.71 | 
13 | Cc1ccc(-c2nc(C(N)=O)c(N)c(-c3c(C)ccc4[nH]ncc34)n2)s1 [Compound 110] |  | 7.64 |  | 6.05 | 
14 | Cc1ccc(O)cc1-c1nc(-c2cccc(N3CCOCC3)c2)nc(C(N)=O)c1N [Compound 27] |  | 7.96 |  | 6.50 | 
15 | Cc1ccc(O)cc1-c1nc(-c2ccc(Cl)cc2)nc(C(N)=O)c1N [Compound 18] |  | 7.55 |  | 5.45 | 
16 | Cc1ccc2[nH]ncc2c1-c1nc(-c2ccccc2)nc(C(N)=O)c1N [Compound 65] |  | 7.66 |  | 5.97 | 
17 | Cc1ccc2[nH]ncc2c1-c1nc(-c2ccns2)nc(C(N)=O)c1N [Compound 109] |  | 7.64 |  | 6.14 | 

Compounds with a higher pIC50 [2], results first:

Row | pIC50 ([1]; 2 h, 2 h compound incubation) | pIC50 [2] | pIC50 ([1]; 2 h, 2 hours with compound) | pIC50 ([1]; 2 h, 2 h incubation) | pIC50 ([1]; 2 h incubation) | Structure (SMILES)
18 |  | > 8.52 | 6.10 |  |  | Cc1ccc2[nH]ncc2c1-c1nc(-c2cccnc2NC(C)(C)C2CCCO2)nc(C(N)=O)c1N (centres unmarked) [Compound 881]
19 | 6.65 | 8.40 |  |  |  | Cc1ccc2[nH]ncc2c1-c1nc(-c2ccccc2NCC(F)F)cc(C(N)=O)c1N [Compound 412]
20 |  | 8.70 |  |  | 7.17 | COc1ccc(-c2cc(-c3c(C)ccc(O)c3C)c(N)c(C(N)=O)n2)nc1 [Compound 61]
21 |  | 8.52 |  | 7.22 |  | Cc1ccc(O)c(C)c1-c1cc(-c2ccns2)nc(C(N)=O)c1N [Compound 38]
22 | 6.50 | 8.22 |  |  |  | Cc1ccc2[nH]ncc2c1-c1nc(-c2cccnc2Nc2ccccc2)nc(C(N)=O)c1N [Compound 607]
23 |  | 8.22 |  | 6.86 |  | Cc1ccc2[nH]ncc2c1-c1cc(-c2ccnc(Oc3cccnc3)n2)nc(C(N)=O)c1N [Compound 199]
24 | 6.33 | 8.52 |  |  |  | Cc1ccc2[nH]ncc2c1-c1nc(-c2cccnc2NC[C@H]2CCCO2)nc(C(N)=O)c1N [Compound 601]
25 | 7.44 | 8.40 |  |  |  | Cc1ccc2[nH]ncc2c1-c1nc(-c2ccccc2N[C@@H](C)C(F)(F)F)nc(C(N)=O)c1N [Compound 429]
26 |  | 8.10 |  | 6.58 |  | Cc1ccc(O)c(C)c1-c1cc(C(=O)Nc2cccnc2)nc(C(N)=O)c1N [Compound 188, 5-amino-4-(3-hydroxy-2,6-dimethylphenyl)-N2-(pyridin-3-yl)pyridine-2,6-dicarboxamide]
27 |  | 8.15 |  | 6.74 |  | Cc1ccc2[nH]ncc2c1-c1cc(-c2ccnc(OCC3CCCO3)n2)nc(C(N)=O)c1N (centres unmarked) [Compound 211]
28 |  | 8.10 |  | 6.00 |  | Cc1ccc2[nH]ncc2c1-c1cc(-c2ccnc(OCCc3ncc[nH]3)n2)nc(C(N)=O)c1N [Compound 240]
29 |  | 8.70 | 6.66 |  |  | Cc1ccc2[nH]ncc2c1-c1nc(-c2cccnc2N[C@H](c2cccnc2)C(F)F)nc(C(N)=O)c1N [Compound 936]
30 |  | 8.40 | 7.24 |  |  | Cc1ccc2[nH]ncc2c1-c1nc(-c2cn(C)nc2NC2CCOCC2)nc(C(N)=O)c1N [Compound 845]
31 | 7.19 | 8.15 |  |  |  | COC(C)(C)C(=O)Nc1ccccc1-c1nc(C(N)=O)c(N)c(-c2c(C)ccc3[nH]ncc23)n1 [Compound 420]
